According to patent US12139461B1, “Piperidine compounds as PDE5 inhibitors” (KING SAUD UNIVERSITY, priority 2024, dated 2024):
Values joined by “and” are separate entries in the source; they are usually repeats but may differ in a detail not shown here. Equal entries are not always repeated. Blank lines part the entries; values can stand above or below the molecule they belong to.

Tests used:
[1] = target: Phosphodiesterase type 5 (PDE5) (Homo sapiens (Human), UniProt O76074); test: In vitro phosphodiesterase type 5 (PDE5) inhibition assay; format: biochemical; settings: purified PDE5, IMAP FP assay
[2] = system: sexually experienced male rats; test: Penile erection index (noncontact erection test); format: in vivo, rat; settings: Rattus norvegicus, oral, linear regression of proportion of responding rats, read-out: effective dose ED50 (dose required to give 50% responding rats)
Description: The penile erection index is an established means of determining the erection promoting properties of a substance. Determination of penile erection in a noncontact position was calculated as reported previously (Haripriya V M. et al., Andrologia 51 (2019) e13180; Sharma V. et al., J Ethnopharmacol 143 (2012) 201-206, the contents of each of which are hereby incorporated by reference in their entirety). The sexually experienced male rats of all groups were given the treatment 30 minutes before experimentation. The number of animals for each dose was ten rats in each experiment. […] The results shown are the average of three separate experiments. Control animals were given 0.5% CMC as a vehicle.
The rats of each group were placed in the observation cages (five at a time) divided into half by two sheets of metal mesh, preventing contact but allowing auditory, visual and olfactory stimuli. After a 5-min adaptation period, the test was started by placing an estrus female on the other side of the cage. Penile erection was recorded when the rats bent down to lick their erect penis. Homosexual mounting was also counted when a male rat mounted another male rat performing pelvic thrusts with or without a penile erection. […] The effective dose ED50 (the dose required to give 50% responding rats) for examined compounds was calculated using linear regression analysis by GraphPad software with the proportion of responding rats as the input data and expressed as μmol/kg.

[3] = system: male rats; test: Copulatory behavior testing; format: in vivo, rat; settings: 5 mg/kg oral; for mean intromission interval (MII): MII=EL/IF
Description: Sexually mature Wistar albino male and female rats weighing 150-180 g (10-14 weeks old) were used in our study. Males were trained for sexual behavior with estrus females, that is, two hours a day for one week, before the investigations. Females were brought into the estrous phase artificially by sequential injection of estradiol benzoate (Sigma) (25 μg/animal) and progesterone (Sigma) (250 μg/animal) subcutaneously, 48 and 4 hours before pairing, respectively. Only those sexually active animals were used subsequently in the study. Sexually active rats were isolated and housed in separate cages at room temperature (24±2° C.) on a reversed day/night cycle with a relative humidity of 50-55% during the experimental period. All sexual studies were performed in a calm laboratory condition under subdued light. For the toxicity study, adult Wistar albino male rats were used separately. Rats were obtained from the Experimental Animal Care Center, College of Pharmacy, King Saud University. Animals were fed with a standard pellet diet and provided water ad libitum. All experiments were performed per the protocols and recommendations of the NIH Guide for the Care and Use of Laboratory Animals and the legal requirements of King Saud University for investigations on humans and animals.
Based on a preliminary study to select the appropriate dose for the promising synthesized compounds, the compounds were administered separately to sexually experienced male rats by oral gavage at 5 mg/kg in a 0.5% sodium carboxymethyl cellulose (CMC) vehicle. […] All solutions were freshly prepared at a concentration that allowed the administration of 1 ml/kg.
After drug treatment, rats were housed separately in transparent cages for acclimation. Thirty minutes after drug treatment, a sexually receptive female rat with estrous phase was introduced in each cage for 30 min and the following parameters of the copulatory behavior were recorded: namely mount latency (ML; time from introduction of the female until the first mount with or without penile insertion, it measures the degree of arousal or sexual interest or libido of the male), mount frequency (MF; the number of mounts until ejaculation, it is a measure of the degree of the male's sexual interest or libido), intromission latency (IL; time from introduction of the female until the first intromission, it measures the degree of sexual excitement and erection), intromission frequency (IF; number of vaginal penetrations until ejaculation, it measures the degree of erection), ejaculation latency (EL; time from the first intromission until ejaculation, it determines the excellent organization of copulation in rats) and post-ejaculatory interval (PEI; time interval between an ejaculation and the following first mount, it measures the refractory period that comes after ejaculation). Latency values represent the number of seconds that elapses from the introduction of the female into the copulatory arena until the male executes the first mount, intromission or ejaculation. Frequency values represent the number of ejaculations, mounts or intromission recorded during the copulatory test.
Depending on these parameters, the following can be calculated: Copulatory efficiency (CE)=(IF/MF)×100 and mean intromission interval (MII)=EL/IF as previously described (Aydogan F. et al., J Ethnopharmacol 257 (2020) 112868; Besong E B. et al., Biochem Res Int 2018 (2018) 2869727, the contents of each of which are hereby incorporated by reference in their entirety). Experiments were repeated blindly three times using new fresh (unused) animals in each experiment.

Compound: CCCc1nn(C)c2c(=O)[nH]c(-c3cc(S(=O)(=O)N4CCN(C)CC4)ccc3OCC)nc12 [sildenafil, reference compound]
ED50 [2]: 8.52 µmol/kg | ejaculation latency (EL) [3]: 426.6 s | intromission frequency (IF) [3]: 17.8 | intromission latency (IL) [3]: 135.1 s | mount frequency (MF) [3]: 26.6 | mount latency (ML) [3]: 68.5 s | post-ejaculatory interval (PEI) [3]: 294.5 s | mean intromission interval (MII) [3]: 24.3

Compound: O=S(=O)(c1ccccc1)N1CCC(Cc2ccccc2)CC1 [Compound C18]
IC50 [1]: 112 ± 2.19 nM

Compound: Cc1cc(C)c(S(=O)(=O)N2CCC(Cc3ccccc3)CC2)c(C)c1 [Compound C26, 4-Benzyl-1-(mesitylsulfonyl)piperidine]
melting point: 70 to 72 °C | IC50 [1]: 107 ± 2.09 nM

Compound: COc1ccc(S(=O)(=O)N2CCC(c3ccccc3)CC2)cc1OC [Compound C2, 1-((3,4-Dimethoxyphenyl)sulfonyl)-4-phenylpiperidine]
melting point: 207 to 209 °C | IC50 [1]: 185 ± 3.61 nM

Compound: O=S(=O)(c1ccccc1)N1CCC(c2ccccc2)CC1 [Compound C8]
IC50 [1]: 54.2 ± 1.06 nM

Compound: COc1ccc(S(=O)(=O)N2CCC(c3ccccc3)CC2)c(OC)c1 [Compound C1, 1-((2,4-Dimethoxyphenyl)sulfonyl)-4-phenylpiperidine]
melting point: 191 to 193 °C | IC50 [1]: 106 ± 2.07 nM

Compound: O=S(=O)(c1ccc(Cl)cc1)N1CCC(c2ccccc2)CC1 [Compound C5]
IC50 [1]: 675 ± 13.2 nM

Compound: COc1ccccc1S(=O)(=O)N1CCC(Cc2ccccc2)CC1 [Compound C23, 4-Benzyl-1-((2-methoxyphenyl)sulfonyl)piperidine]
melting point: 95 to 97 °C | IC50 [1]: 207 ± 4.03 nM

Compound: Cc1ccc(S(=O)(=O)N2CCC(Cc3ccccc3)CC2)cc1 [Compound C28]
efficacy in improving copulatory behavior [3]: more pronounced | ejaculation latency (EL) [3]: 332.8 s | intromission frequency (IF) [3]: 9.1 | intromission latency (IL) [3]: 195.5 s | mount frequency (MF) [3]: 17.5 | mount latency (ML) [3]: 94.6 s | post-ejaculatory interval (PEI) [3]: 393.3 s | copulatory efficiency (CE) ([3]; CE=(IF/MF)x100): 52.3% | mean intromission interval (MII) [3]: 36.6 | IC50 [1]: 56.5 nM

Compound: Cc1ccc(S(=O)(=O)N2CCC(c3ccccc3)CC2)cc1 [Compound C10]
IC50 [1]: 133 ± 2.59 nM

Compound: COc1ccc(NC(=O)CN2CCC(Cc3ccccc3)CC2)cc1 [Compound C15, 2-(4-Benzylpiperidin-1-yl)-N-(4-methoxyphenyl)acetamide]
melting point: 61 to 63 °C | IC50 [1]: 184 ± 3.6 nM

Compound: O=C(CN1CCC(Cc2ccccc2)CC1)Nc1ccccc1 [Compound C30]
ML, IL, IF, MF and EL compared to untreated controls [3]: not significantly different | ejaculation latency (EL) [3]: 324.6 s | intromission frequency (IF) [3]: 6.8 | intromission latency (IL) [3]: Weak but significant reductions | mount frequency (MF) [3]: 14.8 | mount latency (ML) [3]: 95.5 s | post-ejaculatory interval (PEI) [3]: 411.8 s | copulatory efficiency (CE) ([3]; CE=(IF/MF)x100): did not alter | copulatory efficiency (CE) ([3]; CE=(IF/MF)x100, listed as C 30): 46.8% | mean intromission interval (MII) [3]: did not alter | mean intromission interval (MII) ([3]; listed as C 30): 49.2 | intromission latency (IL) ([3]; listed as C 30): 215.3 s | IC50 [1]: 59 nM

Compound: COc1ccc(CNC(=O)CN2CCC(Cc3ccccc3)CC2)cc1 [Compound C33, 2-(4-Benzylpiperidin-1-yl)-N-(4-methoxybenzyl)acetamide]
melting point: 89 to 91 °C | IC50 [1]: 99.8 ± 1.94 nM

Compound: O=C(CN1CCC(Cc2ccccc2)CC1)NCc1ccccc1 [Compound C31]
IC50 [1]: 74.9 ± 1.46 nM

Compound: O=S(=O)(c1ccc(Cl)cc1)N1CCC(Cc2ccccc2)CC1 [Compound C29]
IC50 [1]: 250 ± 4.88 nM

Compound: COc1ccc(S(=O)(=O)N2CCC(Cc3ccccc3)CC2)cc1OC [Compound C20]
ML, IL, IF, MF and EL compared to untreated controls [3]: not significantly different | ejaculation latency (EL) [3]: prolonged | intromission frequency (IF) [3]: 7.6 | intromission latency (IL) [3]: 229.1 s | mount frequency (MF) [3]: 16.0 | mount latency (ML) [3]: 95.5 s | post-ejaculatory interval (PEI) [3]: 401.8 s | copulatory efficiency (CE) ([3]; CE=(IF/MF)x100): did not alter | copulatory efficiency (CE) ([3]; CE=(IF/MF)x100, listed as C 20): 48.5% | mean intromission interval (MII) [3]: did not alter | mean intromission interval (MII) ([3]; listed as C 20): 44.7 | ejaculation latency (EL) ([3]; listed as C 20): 325.1 s | IC50 [1]: 63.3 nM

Second part, led by results:

melting point: 173 to 175 °C | IC50 [1]: 85.2 ± 1.66 nM
Compound: COc1ccccc1S(=O)(=O)N1CCC(c2ccccc2)CC1 [Compound C3, 1-((2-Methoxyphenyl)sulfonyl)-4-phenylpiperidine]

IC50 [1]: 520 ± 10.1 nM
Compound: CC(C)c1cc(C(C)C)c(S(=O)(=O)N2CCC(c3ccccc3)CC2)c(C(C)C)c1 [Compound C7, 1-((2,4,6-tri-isiopropylphenyl)sulfonyl)-4-phenylpiperidine]

IC50 [1]: 874 ± 17.1 nM
Compound: CC(C(=O)Nc1ccc(S(N)(=O)=O)cc1)N1CCC(Cc2ccccc2)CC1 (stereo not shown) [Compound C12, 2-(4-Benzylpiperidin-1-yl)-N-(4-sulfamoylphenyl)-2-methylacetamide]

IC50 [1]: 56.3 nM and 56.4 nM
Compound: COc1ccc(S(=O)(=O)N2CCC(Cc3ccccc3)CC2)c(OC)c1 [Compound C24, 1-((2,4-Dimethoxyphenyl)sulfonyl)-4-Benzylpiperidine]
efficacy in improving copulatory behavior [3]: more pronounced | ejaculation latency (EL) [3]: 377.6 s | intromission frequency (IF) [3]: 9.3 | intromission latency (IL) [3]: 193.8 s | mount frequency (MF) [3]: 17.3 | mount latency (ML) [3]: 85.0 s | post-ejaculatory interval (PEI) [3]: 370.0 s | copulatory efficiency (CE) ([3]; CE=(IF/MF)x100): 54.0% | mean intromission interval (MII) [3]: 41.2

IC50 [1]: 60.5 ± 1.18 nM
Compound: COc1cc(CNC(=O)CN2CCC(Cc3ccccc3)CC2)cc(OC)c1OC [Compound C34, 2-(4-Benzylpiperidin-1-yl)-N-(3,4,5-trimethoxybenzyl)acetamide]

melting point: 72 to 74 °C | IC50 [1]: 484 ± 9.44 nM
Compound: O=C(CN1CCC(Cc2ccccc2)CC1)NCc1ccc(F)cc1 [Compound C16, 2-(4-Benzylpiperidin-1-yl)-N-(4-fluorobenzyl)acetamide]

IC50 [1]: 203 ± 3.95 nM
Compound: O=C(CN1CCC(Cc2ccccc2)CC1)Nc1ccc(F)cc1 [Compound C32]

IC50 [1]: 221 ± 4.32 nM
Compound: NS(=O)(=O)c1ccc(NC(=O)CN2CCC(Cc3ccccc3)CC2)cc1 [Compound C13, 2-(4-Benzylpiperidin-1-yl)-N-(4-sulfamoylphenyl)acetamide]

melting point: 166 to 168 °C | IC50 [1]: 102 ± 1.99 nM
Compound: O=S(=O)(c1ccc(Cl)c(Cl)c1)N1CCC(Cc2ccccc2)CC1 [Compound C19, 4-Benzyl-1-((3,4-dichlorophenyl)sulfonyl)piperidine]

IC50 [1]: 143 ± 2.78 nM
Compound: CC(C)c1cc(C(C)C)c(S(=O)(=O)N2CCC(Cc3ccccc3)CC2)c(C(C)C)c1 [Compound C27, 1-((2,4,6-Tri-isopropylphenyl)sulfonyl)-4-Benzylpiperidine]

IC50 [1]: 279 ± 5.43 nM
Compound: CC(C(=O)Nc1ccc(F)cc1)N1CCC(Cc2ccccc2)CC1 (stereo not shown) [Compound C17]
